Results from ChEMBL document CHEMBL4402608 (J Med Chem, 2020).

Columns and labels:
5HT1B receptor = 5HT1B receptor (Homo sapiens, UniProt P28222); experiment: Displacement of [3H]5-CT from recombinant human 5HT1B receptor stably expressed in HEK cell membranes at 10 uM measured after 90 mins by microbeta scintillation counting method relative to control; conditions: probe [3H]5-CT
[1] = molecular target: T1, Alpha-1D adrenergic receptor (Homo sapiens, UniProt P25100); experiment: Displacement of [3H]-prazosin from recombinant human alpha1D adrenergic receptor measured after 90 mins by microbeta scintillation counting method
T1 sequence (P25100 whole entry): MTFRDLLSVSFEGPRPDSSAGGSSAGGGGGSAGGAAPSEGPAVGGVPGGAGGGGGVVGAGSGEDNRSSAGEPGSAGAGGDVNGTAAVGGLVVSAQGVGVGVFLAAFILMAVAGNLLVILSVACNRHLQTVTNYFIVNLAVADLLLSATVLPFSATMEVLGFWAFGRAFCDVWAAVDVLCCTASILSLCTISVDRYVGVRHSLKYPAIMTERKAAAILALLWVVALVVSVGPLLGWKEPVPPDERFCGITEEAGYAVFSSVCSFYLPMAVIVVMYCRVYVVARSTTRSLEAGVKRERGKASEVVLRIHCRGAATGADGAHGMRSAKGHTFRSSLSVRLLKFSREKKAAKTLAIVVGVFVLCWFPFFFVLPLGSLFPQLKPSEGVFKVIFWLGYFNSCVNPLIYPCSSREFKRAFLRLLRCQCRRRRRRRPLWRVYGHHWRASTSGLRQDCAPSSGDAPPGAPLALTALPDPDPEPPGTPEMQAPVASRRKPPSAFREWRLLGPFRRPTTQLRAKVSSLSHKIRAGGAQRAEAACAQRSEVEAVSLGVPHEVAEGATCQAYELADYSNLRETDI

[2] = molecular target: 5-hydroxytryptamine receptor 2C (Homo sapiens, UniProt P28335); experiment: Displacement of [3H]-Mesulergine from recombinant human 5HT2C receptor expressed in HEK cell membranes measured after 90 mins by microbeta scintillation counting method
[3] = molecular target: 5-hydroxytryptamine receptor 2B (Homo sapiens, UniProt P41595); experiment: Displacement of [3H]-LSD from recombinant human 5HT2B receptor stably expressed in HEK cell membranes measured after 90 mins by microbeta scintillation counting method
5HT1A receptor = 5HT1A receptor (Homo sapiens, UniProt P08908); experiment: Displacement of [3H]-Way100635 from recombinant human 5HT1A receptor stably expressed in CHO cell membranes at 10 uM measured after 90 mins by microbeta scintillation counting method relative to control; conditions: probe [3H]-Way100635
[4] = molecular target: Muscarinic acetylcholine receptor M5 (Homo sapiens, UniProt P08912); experiment: Displacement of [3H]-QNB/[3H]-NMS from human muscarinic M5 receptor expressed in stable CHO cell membranes after 90 mins by microbeta scintillation counting method
5HT2A receptor = 5HT2A receptor (Homo sapiens, UniProt P28223); experiment: Displacement of [3H]-Ketanserin from 5HT2A receptor (unknown origin) at 10 uM measured after 90 mins by microbeta scintillation counting method relative to control; conditions: probe [3H]-Ketanserin
[5] = molecular target: dopamine transporter (DAT) (Homo sapiens, UniProt Q01959); experiment: Displacement of [3H]-Win35428 from human DAT expressed in stable HEK cell membranes at 10 uM after 90 mins by microbeta scintillation counting method relative to control; conditions: stable HEK cell membranes expressing human DAT, probe [3H]-Win35428
5HT7A receptor = 5HT7A receptor (Homo sapiens, UniProt P34969); experiment: Displacement of [3H]-LSD from recombinant human 5HT7A receptor stably expressed in HEK cell membranes at 10 uM measured after 90 mins by microbeta scintillation counting method relative to control; conditions: probe [3H]-LSD
[6] = molecular target: Sodium-dependent serotonin transporter (Homo sapiens, UniProt P31645); experiment: Displacement of [3H]-citalopram from human SERT receptor expressed in stable HEK cell membranes after 90 mins by microbeta scintillation counting method
[7] = molecular target: kappa opioid receptor (KOR) (Homo sapiens, UniProt P41145); experiment: Displacement of [3H]-U69593 from KOR (unknown origin) at 10 uM measured after 90 mins by microbeta scintillation counting method relative to control; conditions: probe [3H]-U69593
[8] = molecular target: beta3 adrenergic receptor (Homo sapiens, UniProt P13945); experiment: Displacement of [3H]-CGP12177 from recombinant human beta3 adrenergic receptor expressed in HEK Flp-In cell membranes at 10 uM measured after 90 mins by microbeta scintillation counting method relative to control; conditions: probe [3H]-CGP12177
[9] = molecular target: 5-hydroxytryptamine receptor 2C (Homo sapiens) (UniProt P28335); experiment: Displacement of [3H]-Mesulergine from recombinant human 5HT2C receptor expressed in HEK cell membranes at 10 uM measured after 90 mins by microbeta scintillation counting method relative to control; conditions: probe [3H]-Mesulergine
[10] = molecular target: delta opioid receptor (DOR) (Homo sapiens, UniProt P41143); experiment: Displacement of [3H]-DADLE from recombinant human DOR stably expressed in HEK cell membranes at 10 uM measured after 90 mins by microbeta scintillation counting method relative to control; conditions: HEK cell membranes stably expressing recombinant human DOR, probe [3H]-DADLE
[11] = molecular target: T1, Alpha-1D adrenergic receptor; experiment: Displacement of [3H]-prazosin from recombinant human alpha1D adrenergic receptor at 10 uM measured after 90 mins by microbeta scintillation counting method relative to control; conditions: probe [3H]-prazosin
muscarinic M5 receptor = muscarinic M5 receptor (Homo sapiens, UniProt P08912); experiment: Displacement of [3H]-QNB/[3H]-NMS from human muscarinic M5 receptor expressed in stable CHO cell membranes at 10 uM after 90 mins by microbeta scintillation counting method relative to control; conditions: probe [3H]-QNB/[3H]-NMS
[12] = molecular target: Alpha-2B adrenergic receptor (Homo sapiens, UniProt P18089); experiment: Displacement of [3H]-rauwolscine from recombinant human alpha2B adrenergic receptor transiently expressed in HEKT cell membranes at 10 uM measured after 90 mins by microbeta scintillation counting method relative to control; conditions: probe [3H]-rauwolscine
dopamine D1 receptor = dopamine D1 receptor (Homo sapiens, UniProt P21728); experiment: in vitro; conditions: probe [3H]-SCH23390
[13] = molecular target: 5-hydroxytryptamine receptor 2A (Homo sapiens, UniProt P28223); experiment: Displacement of [3H]-Ketanserin from 5HT2A receptor (unknown origin) measured after 90 mins by microbeta scintillation counting method
Histamine H2 receptor = Histamine H2 receptor (Homo sapiens, UniProt P25021); experiment: Displacement of [125I]-Iodo-aminopotentidine from human histamine H2 receptor expressed in stable HEK cell membranes after 90 mins by microbeta scintillation counting method
muscarinic M3 receptor = muscarinic M3 receptor (Homo sapiens, UniProt P20309); experiment: Displacement of [3H]-QNB/[3H]-NMS from human muscarinic M3 receptor expressed in stable CHO cell membranes at 10 uM after 90 mins by microbeta scintillation counting method relative to control; conditions: probe [3H]-QNB/[3H]-NMS
[14] = molecular target: serotonin transporter (SERT) (Homo sapiens, UniProt P31645); experiment: Displacement of [3H]-citalopram from human SERT receptor expressed in stable HEK cell membranes at 10 uM after 90 mins by microbeta scintillation counting method relative to control; conditions: stable HEK cell membranes expressing human SERT, probe [3H]-citalopram

Structure (SMILES) | inhibition at […], 10 µM (5HT1B receptor) [%] | inhibition at […], 10 µM (5HT1A receptor) [%] | inhibition at […], 10 µM (5HT2A receptor) [%] | inhibition at […], 10 µM [5] [%] | inhibition at […], 10 µM (5HT7A receptor) [%] | inhibition at […], 10 µM [7] [%] | inhibition at […], 10 µM [8] [%] | inhibition at […], 10 µM [9] [%] | inhibition at […], 10 µM [10] [%] | inhibition at […], 10 µM [11] [%] | inhibition at […], 10 µM (muscarinic M5 receptor) [%] | inhibition at […], 10 µM [12] [%] | inhibition at […], 10 µM (dopamine D1 receptor) [%] | Ki (Histamine H2 receptor) [nM] | inhibition at […], 10 µM (muscarinic M3 receptor) [%] | inhibition at […], 10 µM [14] [%] | also measured
CCCN[C@H]1CCc2nc(N)sc2C1 [PRAMIPEXOLE] | > 50 | > 50 | < 50 | < 50 | > 50 | < 50 | > 50 | < 50 | > 50 | < 50 | < 50 | > 50 | > 50 | 2680 | > 50 | < 50 | Ki [1]: Not Active; Ki [2]: Not Active; Ki [3]: Not Active; Ki ([4]; cho): Not Active; Ki [6]: Not Active; Ki [13]: Not Active
CCCN(CC[C@]1(O)C[C@H](NC(=O)c2ccc3ccccc3c2)C1)[C@H]1CCc2nc(N)sc2C1 | < 50 | > 50 | > 50 | > 50 | > 50 | > 50 | < 50 | > 50 | < 50 | > 50 | > 50 | < 50 | < 50 | 224 | < 50 | > 50 | Ki ([1]; read-out: Ki): 1180 nM; Ki ([2]; read-out: Ki): 762 nM; Ki ([3]; read-out: Ki): 1180 nM; Ki ([4]; read-out: Ki): 2300 nM; Ki ([6]; read-out: Ki): 32 nM; Ki ([13]; read-out: Ki): 2840 nM
